Assays:
[1] = molecular target: GABAA receptors containing the a2 subunit (Homo sapiens, UniProt P18507+P47869); details: cited from earlier work
[2] = test system: electrocutaneous stimulation-induced facial pain rodent model; experiment: ES-induced facial pain model, mechanical allodynia (Von Frey), prophylactic and acute treatment; type: in vivo, Sprague-Dawley rats
Description: Mechanical pain thresholds were assessed by measuring each rat's facial withdrawal threshold (g) in response to von Frey monofilaments (BioSeb). Starting monofilament: 3.84 (0.6 g), 50% facial withdrawal threshold was interpolated using the up-down method (Chaplan S R et al., 1994). Cutoff monofilament was 4.56 (4 g). Unless stated otherwise, the same materials, methods, and provisions of Example 1 were applied to Example 2. The required quantity of the compound is weighed and dissolved in 100% DMSO in a volume amounting to 5% of the total volume while placed on a stirrer. The weight of the compounds refers to the free base weights. Once the solution becomes clear/transparent, the remaining volume of the vehicle is added (30% HPBCD prepared in MQ water) to final concentrations of 0.03, 0.1, and 0.3 mg/ml for Compound 1. The solutions are kept on a stirrer before- and during administration of the compounds to the animals. The experimenter assessing the behavioral responses to drug administration is blinded to the drug treatment to the animals. Each treatment group is coded according the scheme below: • A. Vehicle (5% DMSO+30% HPBCD): 10 ml/kg • B. Compound 1: 0.3 mg/kg • C. Compound 1: 1 mg/kg • D. Compound 1: 3 mg/kg • F. Compound 1: 3 mg/kg—acute Second baseline measurement was carried out similarly to day 1, For each animal, the average of the two baseline nociceptive measurements was calculated within each pain modality (mechanical, heat- and cold pain), and used as baseline (“Baseline” point on figures). Then all rats in the above respective group (A-D) are given treated as mentioned. Group F received vehicle treatment. Treatment is continued once daily to each group same as Day 2 All rats were treated with respective treatment as per day 3-7. After 1 hr of treatment, each rat was subjected to 1 hr of electrocutaneous stimulation at depilated cheek (0.4 mA intensity, 10 ms duration, 1 s inter-pulse interval). Similar to day 1- and 2, all rats were acclimatized to test equipment followed by measurements of ES-induced facial mechanical- heat- and cold allodynia (“0” time point on figures). After measurement of hypersensitivity threshold, rats from group A-D received the vehicle and three doses of Compound 1 as mentioned above while group F received single acute dose of 3 mg/kg of Compound 1. Treatment effects on pain thresholds were evaluated 2- and 4 hours after administration by assessing mechanical- (Von Frey) and thermal (heat and cold) withdrawal threshold.

[3] = test system: electrocutaneous stimulation-induced facial pain rodent model; experiment: ES-induced facial pain model, acute treatment, overall conclusion (mechanical and thermal tests); type: in vivo, Sprague-Dawley rats; details: 1, 3 and 10 mg/kg po
Excerpt: The electrocutaneous stimulation-induced facial pain rodent model is a reproducible orofacial pain model in which depilated cheek area of rats are repeatedly subjected to electrical stimulation. Repeated electrical stimulation at low intensities produces craniofacial pain that mimics the behavioral characteristics of TN such as development of mechanical and thermal allodynia at cheeks despite no visible edema, swelling or excessive injury and tissue damage. Male wild type, Sprague-Dawley rats (Charles River Laboratories) born in-house at […] Research Laboratory between May 24, 2020 to May 28, 2020. […] Compound 1, vehicle and Carbamazepine was administered perorally in doses of 1, 3, and 10 mg/kg (Compound 1) or 30 mg/kg (carbamazepine) and drug effects on pain thresholds were evaluated 2- and 4 hours after drug administration by assessment of mechanical- (von Frey) and thermal hypersensitivity (heat- and cold stimulation respectively). Decrease in ES-induced pain threshold was evaluated 22 hours following electrical stimulation of the depilated left cheek area (between the eye and ear ridge, this is a receptive field of trigeminal nerve) of each rat and was manifested as facial withdrawal following application of Von Frey filaments for mechanical allodynia and a heat lamp and acetone test for thermal hyperalgesia and allodynia respectively. […]

GABAA receptors containing the a2 subunit, sequence (P47869 29-451): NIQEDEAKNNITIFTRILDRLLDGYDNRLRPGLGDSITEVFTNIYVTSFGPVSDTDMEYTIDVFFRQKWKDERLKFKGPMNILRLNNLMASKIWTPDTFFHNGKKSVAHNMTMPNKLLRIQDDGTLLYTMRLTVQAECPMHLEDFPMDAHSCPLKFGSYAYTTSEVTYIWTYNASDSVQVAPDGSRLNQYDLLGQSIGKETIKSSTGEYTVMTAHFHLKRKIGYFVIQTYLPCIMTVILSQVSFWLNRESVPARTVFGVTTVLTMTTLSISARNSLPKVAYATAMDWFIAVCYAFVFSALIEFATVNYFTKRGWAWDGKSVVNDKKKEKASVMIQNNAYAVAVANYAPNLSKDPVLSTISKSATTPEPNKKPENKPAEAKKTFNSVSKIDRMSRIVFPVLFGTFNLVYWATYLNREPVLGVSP
GABAA receptors containing the a2 subunit, sequence (P47870 25-512 partner limits assumed): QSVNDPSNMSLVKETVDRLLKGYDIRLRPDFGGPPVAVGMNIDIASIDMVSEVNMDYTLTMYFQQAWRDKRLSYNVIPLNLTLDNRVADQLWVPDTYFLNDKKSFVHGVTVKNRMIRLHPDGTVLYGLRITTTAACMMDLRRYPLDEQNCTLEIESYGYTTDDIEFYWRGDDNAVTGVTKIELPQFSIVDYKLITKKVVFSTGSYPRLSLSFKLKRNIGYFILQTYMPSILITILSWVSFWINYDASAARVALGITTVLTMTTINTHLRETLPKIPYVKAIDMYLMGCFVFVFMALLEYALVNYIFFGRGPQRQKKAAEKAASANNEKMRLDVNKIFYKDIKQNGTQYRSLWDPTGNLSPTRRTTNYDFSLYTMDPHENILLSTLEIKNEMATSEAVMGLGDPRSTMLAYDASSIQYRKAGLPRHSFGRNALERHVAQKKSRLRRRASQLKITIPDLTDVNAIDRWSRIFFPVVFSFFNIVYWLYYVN
GABAA receptors containing the a2 subunit, sequence (P18507 40-475): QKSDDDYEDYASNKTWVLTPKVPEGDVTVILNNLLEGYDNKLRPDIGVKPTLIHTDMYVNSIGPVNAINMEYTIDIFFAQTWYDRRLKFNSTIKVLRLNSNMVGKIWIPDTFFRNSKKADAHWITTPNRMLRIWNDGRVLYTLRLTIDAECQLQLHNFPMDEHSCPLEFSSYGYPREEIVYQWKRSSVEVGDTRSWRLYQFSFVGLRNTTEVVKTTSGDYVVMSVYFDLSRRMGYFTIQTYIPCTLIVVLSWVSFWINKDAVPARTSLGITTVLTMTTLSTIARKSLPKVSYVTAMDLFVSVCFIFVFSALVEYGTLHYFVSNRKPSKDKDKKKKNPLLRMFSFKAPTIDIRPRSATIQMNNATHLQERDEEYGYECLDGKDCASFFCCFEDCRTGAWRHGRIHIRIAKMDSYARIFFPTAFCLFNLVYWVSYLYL

Q: Which “positive allosteric modulation of GABAA receptors containing the a2 subunit” value [1] does the source give for `COc1ncc(-c2cccc(-n3cnc4cc(C(C)(C)O)cnc43)c2)c(OC)n1` [Compound 1, 2-(3-(3-(2,4-dimethoxypyrimidin-5-yl)phenyl)-3H-imidazo[4,5-b]pyridin-6-yl)propan-2-ol] here?
A: to a minor extent

Q: What about the “effect size on mechanical allodynia, acute treatment compared to prophylactic treated animals” value ([2]; acute 3 mg/kg po) of the same compound?
A: smaller

Q: And the “effect on established mechanical allodynia vs vehicle” value (“effect … vs vehicle” below) ([2]; acute 3 mg/kg po on day 9, p<0.01 post 2 hrs, p<0.001 post 4 hrs)?
A: reversed the mechanical allodynia

Q: And the “effect … vs vehicle” value ([2]; prophylactic 0.3 mg/kg po plus additional dose on day 9, p>0.05 post 2 hrs, p<0.01 post 4 hrs)?
A: reversed the mechanical allodynia dose dependently

Q: What about the “effect … vs vehicle” value ([2]; prophylactic 1 mg/kg po plus additional dose on day 9, p<0.01 post 2 hrs, p<0.0001 post 4 hrs) of the same compound?
A: reversed the mechanical allodynia dose dependently

Q: What about the “development of mechanical allodynia vs vehicle” value ([2]; prophylactic 3 mg/kg po once daily for 7 days, day 9 at 0 time, p<0.001 vs vehicle) of the same compound?
A: significantly reduced the development of allodynia

Q: What about the “effect … vs vehicle” value ([2]; prophylactic 3 mg/kg po plus additional dose on day 9, p<0.0001 post 2 hrs and post 4 hrs) of the same compound?
A: reversed the mechanical allodynia dose dependently

Q: What about the “analgesic effects (overall)” value [3] of the same compound?
A: significant analgesic effects in a dose dependent manner

Reference: US20240197733A1, “A GABA RECEPTOR MODULATOR FOR USE IN THE TREATMENT OF PAIN” (SANIONA A/S, priority 2021, published 2024)
